Experimental data from patent US10975084B2, “KDM5 inhibitors” (Merck Sharp & Dohme Corp., priority 2016, dated 2021).

Each compound was assayed against KDM5B (Homo sapiens (Human), UniProt Q9UGL1) (assay: KDM5B TR-FRET Enzyme Activity Assay). Details: LANCE TR-FRET; 5 nM full-length recombinant KDM5B; ten point titration 100000 nM to 5.08 nM.
Assay type: biochemical
Procedure, shortened: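 Full-length KDM5B from Sf21 cells (5 nM) was preincubated 30 min with compound in HEPES pH 7.3 buffer with ascorbate and 2 μM Fe(II). Reaction with 500 nM biotinylated H3K4Me3 peptide and 500 nM α-ketoglutarate ran 60 min. Product was detected by TR-FRET (Eu-anti-H3K4Me1-2/streptavidin-Dylight 650, 665/615 ratio); IC50 came from a 4-parameter fit.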

KDM5B, sequence (Q9UGL1 whole entry): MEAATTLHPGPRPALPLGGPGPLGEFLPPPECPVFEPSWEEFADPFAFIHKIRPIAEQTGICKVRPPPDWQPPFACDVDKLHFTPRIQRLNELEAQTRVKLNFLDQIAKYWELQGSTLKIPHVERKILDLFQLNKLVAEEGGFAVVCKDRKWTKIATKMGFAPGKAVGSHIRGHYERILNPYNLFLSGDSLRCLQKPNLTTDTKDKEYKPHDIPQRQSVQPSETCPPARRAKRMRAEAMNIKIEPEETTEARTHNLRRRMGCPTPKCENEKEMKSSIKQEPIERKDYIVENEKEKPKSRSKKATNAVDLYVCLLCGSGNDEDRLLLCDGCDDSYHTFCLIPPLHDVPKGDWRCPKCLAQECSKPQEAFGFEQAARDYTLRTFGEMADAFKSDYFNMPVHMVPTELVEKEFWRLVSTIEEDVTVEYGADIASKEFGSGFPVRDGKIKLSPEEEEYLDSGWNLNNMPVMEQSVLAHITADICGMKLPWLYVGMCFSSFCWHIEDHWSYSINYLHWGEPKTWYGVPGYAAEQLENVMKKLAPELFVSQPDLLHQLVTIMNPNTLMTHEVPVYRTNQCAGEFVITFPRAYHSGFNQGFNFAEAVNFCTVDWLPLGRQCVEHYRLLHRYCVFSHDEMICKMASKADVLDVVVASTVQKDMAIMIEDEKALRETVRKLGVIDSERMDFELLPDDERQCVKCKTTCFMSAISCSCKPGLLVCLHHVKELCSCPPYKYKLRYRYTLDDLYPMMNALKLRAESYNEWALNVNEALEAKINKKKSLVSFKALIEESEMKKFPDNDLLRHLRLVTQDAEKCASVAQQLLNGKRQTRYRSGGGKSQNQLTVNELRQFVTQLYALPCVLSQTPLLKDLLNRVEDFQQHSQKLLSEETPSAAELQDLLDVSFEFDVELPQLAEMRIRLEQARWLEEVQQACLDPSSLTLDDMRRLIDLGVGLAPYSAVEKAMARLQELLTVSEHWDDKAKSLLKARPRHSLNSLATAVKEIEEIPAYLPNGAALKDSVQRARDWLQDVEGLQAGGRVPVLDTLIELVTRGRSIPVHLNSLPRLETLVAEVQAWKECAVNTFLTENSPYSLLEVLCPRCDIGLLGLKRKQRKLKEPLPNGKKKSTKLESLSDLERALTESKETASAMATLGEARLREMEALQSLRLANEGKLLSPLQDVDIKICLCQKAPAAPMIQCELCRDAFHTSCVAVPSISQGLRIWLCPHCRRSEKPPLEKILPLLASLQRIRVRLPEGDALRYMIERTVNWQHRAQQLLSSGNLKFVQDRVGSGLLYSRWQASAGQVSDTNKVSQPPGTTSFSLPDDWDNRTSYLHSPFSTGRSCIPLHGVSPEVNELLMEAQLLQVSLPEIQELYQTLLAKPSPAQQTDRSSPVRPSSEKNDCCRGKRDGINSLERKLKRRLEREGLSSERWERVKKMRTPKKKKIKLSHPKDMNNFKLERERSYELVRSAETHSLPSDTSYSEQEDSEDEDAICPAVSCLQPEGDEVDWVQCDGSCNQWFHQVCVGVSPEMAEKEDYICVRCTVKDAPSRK

| SMILES | IC50 [nM] |
| --- | --- |
| CC(C)(C)c1c(-c2cnn(C(C)(C)C)c2)[nH]c2ncnn2c1=O [Example 11-4, 6-tert-butyl-5-(1-tert-butyl-1H-pyrazol-4-yl)[1,2,4]triazolo[1,5-a]pyrimidin-7(4H)-one] | 904 |
| CC(C)c1c(-c2ccc(CC#N)cc2)[nH]c2ncnn2c1=O [Example 11-67, {4-[6-(1-methylethyl)-7-oxo-4,7-dihydro[1,2,4]triazolo[1,5-a]pyrimidin-5-yl]phenyl}acetonitrile] | 18.2 |
| CCOC(=O)c1[nH]c2ncnn2c(=O)c1C [Example 8-11, ethyl 6-methyl-7-oxo-4,7-dihydro[1,2,4]triazolo[1,5-a]pyrimidine-5-carboxylate] | 6740 |
| C=C(CCC)c1[nH]c2ncnn2c(=O)c1C(C)C [Example 11-22, 6-(1-methylethyl)-5-(1-methylidene-butyl)[1,2,4]triazolo[1,5-a]pyrimidin-7(4H)-one] | 808 |
| CC(C)c1c(-c2ccc(N3CCCCC3)cc2)[nH]c2ncnn2c1=O [Example 11-41, 6-(1-methylethyl)-5-(4-piperidin-1-ylphenyl)[1,2,4]triazolo[1,5-a]pyrimidin-7(4H)-one] | 11.8 |
| O=c1cc(-c2ccccc2)[nH]c2ncnn12 [Example 8-5, 5-phenyl-[1,2,4]triazolo[1,5-a]pyrimidin-7(4H)-one] | 2240 |
| CCc1c(C)[nH]c2ncnn2c1=O [Example 8-36, 6-ethyl-5-methyl-[1,2,4]triazolo[1,5-a]pyrimidin-7(4H)-one] | 3490 |
| O=c1cc(-c2ccccc2F)[nH]c2ncnn12 [Example 8-28, 5-(2-fluorophenyl)[1,2,4]triazolo[1,5-a]pyrimidin-7(4H)-one] | 5540 |
| CC(C)c1c(C2=CCC(C#N)CC2)[nH]c2ncnn2c1=O (centres unmarked) [Example 11-56] | 110 |
| O=c1cc(-c2ccccn2)[nH]c2ncnn12 [Example 8-23, 5-pyridin-2-yl[1,2,4]triazolo[1,5-a]pyrimidin-7(4H)-one] | 2420 |
| CC(C)c1c(C2=CCCN(C)C2)[nH]c2ncnn2c1=O [Example 11-35, 6-(1-methylethyl)-5-(1-methyl-1,2,5,6-tetrahydropyridin-3-yl)[1,2,4]triazolo[1,5-a]pyrimidin-7(4H)-one] | 506 |
| CC(C)c1cc(=O)n2ncnc2[nH]1 [Example 8-33, 5-(1-methylethyl)[1,2,4]triazolo[1,5-a]pyrimidin-7(4H)-one] | 82300 |
| CCOC(=O)Cc1ccc(-c2[nH]c3ncnn3c(=O)c2C(C)C)cc1 [Example 11-45, ethyl {4-[6-(1-methylethyl)-7-oxo-4,7-dihydro[1,2,4]triazolo[1,5-a]pyrimidin-5-yl]phenyl}acetate] | 17.4 |
| CC(C)c1c(-c2cnn(C3CC3)c2)[nH]c2ncnn2c1=O [Example 11-18, 5-(1-cyclopropyl-1H-pyrazol-4-yl)-6-(1-methylethyl)[1,2,4]triazolo[1,5-a]pyrimidin-7(4H)-one] | 5.74 |
| CC(C)c1c(-c2ccc(CN3CCCCC3)cc2)[nH]c2ncnn2c1=O [Example 11-48, 6-(1-methylethyl)-5-[4-(piperidin-1-ylmethyl)phenyl][1,2,4]triazolo[1,5-a]pyrimidin-7(4H)-one] | 16.8 |
| O=c1cc(-c2ccoc2)[nH]c2ncnn12 [Example 8-21, 5-furan-3-yl[1,2,4]triazolo[1,5-a]pyrimidin-7(4H)-one] | 4100 |
| CC(C)(C)n1cc(-c2[nH]c3ncnn3c(=O)c2CC(F)(F)F)cn1 [Example 8-39, 5-(1-tert-butyl-1H-pyrazol-4-yl)-6-(2,2,2-trifluoroethyl)[1,2,4]triazolo[1,5-a]pyrimidin-7(4H)-one] | 87.1 |
| CC(C)c1c(-c2coc(-c3ccc(F)cc3)n2)[nH]c2ncnn2c1=O [Example 11-43, 5-[2-(4-fluorophenyl)-1,3-oxazol-4-yl]-6-(1-methylethyl)[1,2,4]triazolo[1,5-a]pyrimidin-7(4H)-one] | 23.8 |
| O=c1cc(-c2cccc(Cl)c2)[nH]c2ncnn12 [Example 8-29, 5-(3-chlorophenyl)[1,2,4]triazolo[1,5-a]pyrimidin-7(4H)-one] | 2980 |
| CC(C)c1c(/C=C/c2ccccc2)[nH]c2ncnn2c1=O [Example 11-55, 6-(1-methylethyl)-5-[(E)-2-phenylethenyl][1,2,4]triazolo[1,5-a]pyrimidin-7(4H)-one] | 9.45 |
| CCc1c(C)[nH]c2nncn2c1=O [Example 8-37, 6-ethyl-7-methyl[1,2,4]triazolo[4,3-a]pyrimidin-5(8H)-one] | 91700 |
| CC(C)c1c(-c2cnn(-c3ccccc3)c2)[nH]c2ncnn2c1=O [Example 11-8, 6-(1-methylethyl)-5-(1-phenyl-1H-pyrazol-4-yl)[1,2,4]triazolo[1,5-a]pyrimidin-7(4H)-one] | 6.28 |

The remaining lines, values ahead:

| IC50 [nM] | SMILES |
| --- | --- |
| 41.2 | CC(C)c1c(-c2cccc(C(F)(F)F)c2)[nH]c2ncnn2c1=O [Example 11-85, 6-(1-methylethyl)-5-[3-(trifluoromethyl)phenyl] [1,2,4]triazolo[1,5-a]pyrimidin-7(4H)-one] |
| 19.4 | COC(=O)c1ccc(-c2[nH]c3ncnn3c(=O)c2C(C)C)cc1 [Example 11-79, methyl 4-[6-(1-methylethyl)-7-oxo-4,7-dihydro[1,2,4]triazolo[1,5-a]pyrimidin-5-yl]benzoate] |
| 27.5 | CC(C)c1c(-c2ccc(N)c(F)c2)[nH]c2ncnn2c1=O [Example 11-119, 5-(4-amino-3-fluorophenyl)-6-(1-methylethyl)[1,2,4]triazolo[1,5-a]pyrimidin-7(4H)-one] |
| 8.76 | CC(C)c1c(-c2ccc(NS(=O)(=O)C3CC3)cc2)[nH]c2ncnn2c1=O [Example 11-124, N-{4-[6-(1-methylethyl)-7-oxo-4,7-dihydro[1,2,4]triazolo[1,5-a]pyrimidin-5-yl]phenyl}cyclopropanesulfonamide] |
| 79.3 | CC(C)c1c(-c2cc(C3CC3)cs2)[nH]c2ncnn2c1=O [Example 11-143, 5-(4-cyclopropylthiophen-2-yl)-6-(1-methylethyl)[1,2,4]triazolo[1,5-a]pyrimidin-7(4H)-one] |
| 7.57 | CC(C)c1c(-c2ccc3c(c2)CCC(=O)N3)[nH]c2ncnn2c1=O [Example 11-101, 6-[6-(1-methylethyl)-7-oxo-4,7-dihydro[1,2,4]triazolo[1,5-a]pyrimidin-5-yl]-3,4-dihydroquinolin-2(1H)-one] |
| 124 | CC(C)c1c(-c2csc(-n3cccc3)n2)[nH]c2ncnn2c1=O [Example 11-140, 6-(1-methylethyl)-5-[2-(1H-pyrrol-1-yl)-1,3-thiazol-4-yl][1,2,4]triazolo[1,5-a]pyrimidin-7(4H)-one] |
| 20.1 | CC(C)c1c(-c2ccc(NS(C)(=O)=O)cc2)[nH]c2ncnn2c1=O [Example 11-100, N-{4-[6-(1-methylethyl)-7-oxo-4,7-dihydro[1,2,4]triazolo[1,5-a]pyrimidin-5-yl]phenyl}methanesulfonamide] |
| 13.3 | CC(C)c1c(-c2cn[nH]c2)[nH]c2ncnn2c1=O [Example 11-122, 6-(1-methylethyl)-5-(1H-pyrazol-4-yl)[1,2,4]triazolo[1,5-a]pyrimidin-7(4H)-one] |
| 13.5 | CC(C)c1c(-c2ccc(N3CCS(=O)(=O)CC3)cc2)[nH]c2ncnn2c1=O [Example 11-96, 5-[4-(1,1-dioxidothiomorpholin-4-yl)phenyl]-6-(1-methylethyl)[1,2,4]triazolo[1,5-a]pyrimidin-7(4H)-one] |
| 12.3 | CC(C)c1c(-c2ccc(-n3cccn3)nc2)[nH]c2ncnn2c1=O [Example 11-128, 6-(1-methylethyl)-5-[6-(1H-pyrazol-1-yl)pyridin-3-yl][1,2,4]triazolo[1,5-a]pyrimidin-7(4H)-one] |
| 27.2 | CC(C)c1c(-c2ccc3cccnc3c2)[nH]c2ncnn2c1=O [Example 11-73, 6-(1-methylethyl)-5-quinolin-7-yl[1,2,4]triazolo[1,5-a]pyrimidin-7(4H)-one] |
| 34.2 | CC(C)c1c(-c2ccc3c(c2)OCCN3C)[nH]c2ncnn2c1=O [Example 11-105, 5-(4-methyl-3,4-dihydro-2H-1,4-benzoxazin-7-yl)-6-(1-methylethyl)[1,2,4]triazolo[1,5-a]pyrimidin-7(4H)-one] |
| 25.8 | CC(C)c1c(-c2ccc3nccn3c2)[nH]c2ncnn2c1=O [Example 11-69, 5-imidazo[1,2-a]pyridin-6-yl-6-(1-methylethyl)[1,2,4]triazolo[1,5-a]pyrimidin-7(4H)-one] |
| 5.22 | CC(C)CCn1cc(-c2[nH]c3ncnn3c(=O)c2C(C)C)cn1 [Example 11-146, 5-[1-(3-methylbutyl)-1H-pyrazol-4-yl]-6-(1-methylethyl)[1,2,4]triazolo[1,5-a]pyrimidin-7(4H)-one] |
| 122 | Cc1csc(-c2[nH]c3ncnn3c(=O)c2C(C)C)c1 [Example 11-115, 6-(1-methylethyl)-5-(4-methylthiophen-2-yl)[1,2,4]triazolo[1,5-a]pyrimidin-7(4H)-one] |
